Data published in patent US20130217664A1, “NOVEL COMPOUNDS USEFUL FOR THE TREATMENT OF DEGENERATIVE AND INFLAMMATORY DISEASES” (priority 2012, published 2013).

How the values were obtained:
human JAK1 = target: T1, human JAK1 (Homo sapiens, UniProt P23458); assay: JAK1 inhibition assay (polyGT substrate / Ulight-JAK1 peptide); assay type: biochemical; conditions: recombinant human JAK1 catalytic domain; polyGT or Ulight-JAK1 peptide assay
T1 construct: catalytic domain, amino acids 866-1154; catalog number PV4774; purchased Invitrogen PV4774
T1 sequence (P23458 866-1154): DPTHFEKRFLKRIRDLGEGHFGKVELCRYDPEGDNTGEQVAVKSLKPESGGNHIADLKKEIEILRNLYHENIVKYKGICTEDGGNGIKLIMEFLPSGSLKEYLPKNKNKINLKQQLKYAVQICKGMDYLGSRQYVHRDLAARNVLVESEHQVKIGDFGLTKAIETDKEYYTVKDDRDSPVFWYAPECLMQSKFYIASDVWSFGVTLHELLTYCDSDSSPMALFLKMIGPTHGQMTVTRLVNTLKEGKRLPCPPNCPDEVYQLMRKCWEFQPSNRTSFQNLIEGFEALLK
Outline: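 Two formats. PolyGT radiometric: 45 min at 30 °C, stopped with phosphoric acid, counted as cpm. Ulight-JAK1 peptide: 60 min at room temperature, stopped with Eu-anti-phosphotyrosine/EDTA, read as RFU. Percent inhibition normalised to vehicle and 10 μM staurosporine.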

human JAK2 = target: T2, human JAK2 (Homo sapiens, UniProt O60674); assay: JAK2 inhibition assay (polyGT substrate / Ulight-JAK1 peptide); assay type: biochemical; conditions: recombinant human JAK2 catalytic domain; polyGT or Ulight-JAK1 peptide assay
T2 construct: catalytic domain (amino acids 808-1132; catalog number PV4210); GST; purchased Invitrogen PV4210
T2 sequence (O60674 808-1132): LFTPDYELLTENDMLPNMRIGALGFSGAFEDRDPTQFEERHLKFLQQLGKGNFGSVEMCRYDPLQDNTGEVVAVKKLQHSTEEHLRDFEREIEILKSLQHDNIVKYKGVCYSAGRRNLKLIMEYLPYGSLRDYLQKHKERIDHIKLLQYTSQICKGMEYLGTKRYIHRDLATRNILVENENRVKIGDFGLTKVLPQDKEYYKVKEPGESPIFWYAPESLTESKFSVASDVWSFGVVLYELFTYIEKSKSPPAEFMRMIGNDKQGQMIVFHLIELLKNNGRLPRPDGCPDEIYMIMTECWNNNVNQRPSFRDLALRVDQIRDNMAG
Experimental: 1.2 JAK2 Inhibition Assay
1.2.1 JAK2 Assay polyGT Substrate
0.025 mU of JAK2 is incubated with 2.5 μg polyGT substrate (Sigma catalog number P0275) in kinase reaction buffer (5 mM MOPS pH 7.5, 9 mM MgAc, 0.3 mM EDTA, 0.06% Brij and 0.6 mM DTT, 1 μM non-radioactive ATP, 0.25 μCi ^33P-gamma-ATP (GE Healthcare, catalog number AH9968) final concentrations) with or without 5 μL containing test compound or vehicle (DMSO, 1% final concentration), in a total volume of 25 μL, in a polypropylene 96-well plate (Greiner, V-bottom). After 90 min at 30° C., reactions are stopped by adding of 25 μL/well of 150 mM phosphoric acid. […] Plates are washed 6 times with 300 μL per well of a 75 mM phosphoric acid solution and the bottom of the plates is sealed. 40 μL/well of Microscint-20 is added, the top of the plates is sealed and readout is performed using the Topcount (Perkin Elmer). Kinase activity is calculated by subtracting counts per min (cpm) obtained in the presence of a positive control inhibitor (10 μM staurosporine) from cpm obtained in the presence of vehicle. The ability of a test compound to inhibit this activity is determined as:
Percentage inhibition=((cpm determined for sample with test compound present−cpm determined for sample with positive control inhibitor)divided by(cpm determined in the presence of vehicle−cpm determined for sample with positive control inhibitor))*100.
Dose dilution series are prepared for the compounds enabling the testing of dose-response effects in the JAK2 assay and the calculation of the IC50 for each compound.
1.2.2 JAK2 Ulight-JAK1 Peptide Assay
After 60 min at room temperature, reactions were stopped by adding 20 μL/well of detection mixture (1× detection buffer (Perkin Elmer, catalog number CR97-100C), 0.5 nM Europium-anti-phosphotyrosine (PT66) (Perkin Elmer, catalog number AD0068), 10 mM EDTA). […] Kinase activity was calculated by subtracting relative fluorescence units (RFU) obtained in the presence of a positive control inhibitor (10 μM staurosporine) from RFU obtained in the presence of vehicle. The ability of a test compound to inhibit this activity was determined as:
Percentage inhibition=((RFU determined for sample with test compound present−RFU determined for sample with positive control inhibitor)divided by(RFU determined in the presence of vehicle−RFU determined for sample with positive control inhibitor))*100.
Dose dilution series are prepared for compound enabling the testing of dose-response effects in the JAK2 assay and the calculation of the IC50 for the compound. Each compound is routinely tested at concentration of 20 μM followed by a 1/5 serial dilution, 10 points in a final concentration of 1% DMSO. […] The data are expressed as the average IC50 from the assays±standard error of the mean.

Structure (SMILES)	IC50 (human JAK1)	IC50 (human JAK2)
Cc1cc(OCc2ccccc2)ccc1N(C)c1cc2c(cn1)ncn2C [Compound 53, N-(4-(benzyloxy)-2-methylphenyl)-N,1-dimethyl-1H-imidazo[4,5-c]pyridin-6-amine]	0.101 to 0.5 µM	> 1 µM
Cc1cc(OCc2ccc(Cl)cc2)ccc1N(C)c1cc2c(cn1)ncn2C [Compound 54, N-(4-(4-chlorobenzyloxy)-2-methylphenyl)-N,1-dimethyl-1H-imidazo[4,5-c]pyridin-6-amine]	0.501 to 1 µM	> 1 µM
Cc1ccc(OCCN2CCCC2)cc1N(C)c1cc2c(cn1)ncn2C [Compound 58, N,1-dimethyl-N-(2-methyl-5-(2-(pyrrolidin-1-yl)ethoxy)phenyl)-1H-imidazo[4,5-c]pyridin-6-amine]	> 1 µM	> 1 µM
Cc1ccc(OCC(=O)N(C)C)cc1N(C)c1cc2c(cn1)ncn2C [Compound 59, N,N-dimethyl-2-(4-methyl-3-(methyl(1-methyl-1H-imidazo[4,5-c]pyridin-6-yl)amino)phenoxy)acetamide]	0.101 to 0.5 µM	> 1 µM
Cc1c(OCC(=O)N(C)C)cccc1N(C)c1cc2c(cn1)ncn2C [Compound 65, N,N-dimethyl-2-(2-methyl-3-(methyl(1-methyl-1H-imidazo[4,5-c]pyridin-6-yl)amino)phenoxy)acetamide]	> 1 µM	> 1 µM
Cc1c(OCCCC#N)cccc1N(C)c1cc2c(cn1)ncn2C [Compound 66, 4-(2-methyl-3-(methyl(1-methyl-1H-imidazo[4,5-c]pyridin-6-yl)amino)phenoxy)butane nitrile]	0.101 to 0.5 µM	> 1 µM
Cc1c(OCc2cccnc2)cccc1N(C)c1cc2c(cn1)ncn2C [Compound 69, N,1-dimethyl-N-(2-methyl-3-(pyridin-3-ylmethoxy)phenyl)-1H-imidazo[4,5-c]pyridin-6-amine]	0.101 to 0.5 µM	> 1 µM
Cc1c(OCC(C)C)cccc1N(C)c1cc2c(cn1)ncn2C [Compound 70, N-(3-isobutoxy-2-methylphenyl)-N,1-dimethyl-1H-imidazo[4,5-c]pyridin-6-amine]	0.101 to 0.5 µM	0.501 to 1 µM
COc1ccc(Cc2ccc(N(C)c3cc4c(cn3)ncn4C)c(C)c2)cc1 [Compound 74, N-(4-(4-methoxybenzyl)-2-methylphenyl)-N,1-dimethyl-1H-imidazo[4,5-c]pyridin-6-amine]	0.501 to 1 µM	> 1 µM
Cc1c(OCc2ccccc2)cccc1N(C)c1cc2c(cn1)ncn2C [Compound 75, N-(3-(benzyloxy)-2-methylphenyl)-N,1-dimethyl-1H-imidazo[4,5-c]pyridin-6-amine]	0.501 to 1 µM	0.501 to 1 µM
Cc1c(OCc2ccc(Cl)cc2)cccc1N(C)c1cc2c(cn1)ncn2C [Compound 76]	> 1 µM	> 1 µM
Cc1c(OCCN2CCCC2)cccc1N(C)c1cc2c(cn1)ncn2C [Compound 77, N,1-dimethyl-N-(2-methyl-3-(2-(pyrrolidin-1-yl)ethoxy)phenyl)-1H-imidazo[4,5-c]pyridin-6-amine]	> 1 µM	> 1 µM
CCc1ccncc1N(C)c1cc2c(cn1)ncn2C [Compound 78, N-(4-ethylpyridin-3-yl)-N,1-dimethyl-1H-imidazo[4,5-c]pyridin-6-amine]	0.101 to 0.5 µM	> 1 µM
CCc1ncccc1N(C)c1cc2c(cn1)ncn2C [Compound 79, N-(2-ethylpyridin-3-yl)-N,1-dimethyl-1H-imidazo[4,5-c]pyridin-6-amine]	> 1 µM	> 1 µM
CCc1ccc(C(=O)N(C)C)cc1N(C)c1cc2c(cn1)ncn2C [Compound 87, 4-Ethyl-N,N-dimethyl-3-(methyl(1-methyl-1H-imidazo[4,5-c]pyridin-6-yl)amino)benzamide]	0.101 to 0.5 µM	> 1 µM
Cc1cc(Oc2ccc(C#N)nc2)ccc1N(C)c1cc2c(cn1)ncn2C [Compound 88, 5-(3-methyl-4-(methyl(1-methyl-1H-imidazo[4,5-c]pyridin-6-yl)amino)phenoxy)picolino-nitrile]	0.101 to 0.5 µM	> 1 µM
